This is an account of results in patent publication US20230042936A1, “PYRIDO[2,3-d]PYRIMIDIN-7(8H)-ONES AS CDK INHIBITORS” (PROSENESTAR LLC, priority 2020, published 2023).

For one data set, the target named is T1, AKT1 aa1-480 (Homo sapiens, UniProt P31749).
T1 construct: AKT1 aa1-480
Put plainly: Kinase profiling. It counts as biochemical. The conditions noted are these: 10 semi-logarithmic dilutions from 50 μM, singlicate.

For a further data set, the target named is CDK2/CycA2 (Homo sapiens, UniProt P24941). Put plainly: Kinase profiling. The format is biochemical. The conditions noted are these: 10 semi-logarithmic dilutions from 50 μM, singlicate.
For another data set, the target named is CDK9/CycT1 (Homo sapiens, UniProt P50750). Put plainly: Kinase profiling. It counts as biochemical. Particulars: 10 semi-logarithmic dilutions from 50 μM, singlicate.
The target in the next data set is T2, DYRK2 (Homo sapiens, UniProt Q92630).
T2 sequence (Q92630 1-601): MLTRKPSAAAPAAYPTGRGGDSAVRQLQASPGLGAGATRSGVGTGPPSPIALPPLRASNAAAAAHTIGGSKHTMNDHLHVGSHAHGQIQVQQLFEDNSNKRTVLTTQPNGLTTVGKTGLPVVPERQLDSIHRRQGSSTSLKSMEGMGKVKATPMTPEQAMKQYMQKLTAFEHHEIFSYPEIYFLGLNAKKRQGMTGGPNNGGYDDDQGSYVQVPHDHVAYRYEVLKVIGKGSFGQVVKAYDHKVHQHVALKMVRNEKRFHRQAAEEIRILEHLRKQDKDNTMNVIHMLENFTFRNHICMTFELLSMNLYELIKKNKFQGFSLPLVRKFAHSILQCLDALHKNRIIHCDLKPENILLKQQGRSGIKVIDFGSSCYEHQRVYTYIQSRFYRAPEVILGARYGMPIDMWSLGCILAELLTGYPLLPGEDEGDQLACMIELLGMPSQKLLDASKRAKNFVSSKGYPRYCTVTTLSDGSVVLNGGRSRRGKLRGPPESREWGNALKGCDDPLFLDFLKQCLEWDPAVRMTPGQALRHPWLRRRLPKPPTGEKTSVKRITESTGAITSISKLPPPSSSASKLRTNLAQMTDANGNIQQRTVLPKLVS
The data set can be described thus: Kinase profiling. The conditions noted are these: 10 semi-logarithmic dilutions from 50 μM, singlicate; read-out: IC50 DYRK2. The format is biochemical.

For the next data set, the target named is CDK9/CycK (Homo sapiens, UniProt P50750). Put plainly: Kinase profiling. The format is biochemical. The conditions noted are these: 10 semi-logarithmic dilutions from 50 μM, singlicate.
CDK9/CycK, sequence (P50750 whole entry): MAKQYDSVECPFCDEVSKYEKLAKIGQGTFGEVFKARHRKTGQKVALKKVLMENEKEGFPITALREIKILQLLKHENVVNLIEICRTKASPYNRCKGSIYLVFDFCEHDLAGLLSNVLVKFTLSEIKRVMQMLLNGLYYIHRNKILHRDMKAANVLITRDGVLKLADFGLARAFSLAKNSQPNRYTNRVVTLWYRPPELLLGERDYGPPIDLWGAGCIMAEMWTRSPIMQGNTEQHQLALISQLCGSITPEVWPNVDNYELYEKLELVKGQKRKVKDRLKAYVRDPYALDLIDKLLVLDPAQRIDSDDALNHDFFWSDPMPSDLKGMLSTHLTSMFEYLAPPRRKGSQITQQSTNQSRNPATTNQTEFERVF
CDK9/CycK, sequence (O75909 whole entry partner): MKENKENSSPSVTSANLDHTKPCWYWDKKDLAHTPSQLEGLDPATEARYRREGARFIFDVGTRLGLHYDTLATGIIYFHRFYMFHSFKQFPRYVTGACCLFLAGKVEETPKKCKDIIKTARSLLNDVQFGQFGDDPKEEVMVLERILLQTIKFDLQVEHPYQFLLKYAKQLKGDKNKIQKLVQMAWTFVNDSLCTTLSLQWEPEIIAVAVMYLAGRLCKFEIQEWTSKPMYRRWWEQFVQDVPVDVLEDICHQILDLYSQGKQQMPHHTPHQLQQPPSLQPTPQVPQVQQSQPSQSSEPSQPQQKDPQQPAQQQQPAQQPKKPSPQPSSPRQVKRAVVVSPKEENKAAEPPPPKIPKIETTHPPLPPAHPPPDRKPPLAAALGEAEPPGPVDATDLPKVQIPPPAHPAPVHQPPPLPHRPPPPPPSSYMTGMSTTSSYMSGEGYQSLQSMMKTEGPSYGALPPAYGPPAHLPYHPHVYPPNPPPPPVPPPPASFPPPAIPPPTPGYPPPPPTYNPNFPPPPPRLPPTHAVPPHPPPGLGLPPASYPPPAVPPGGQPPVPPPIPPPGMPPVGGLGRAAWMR
The next data set has as its target CDK5/p25NCK (Homo sapiens, UniProt Q00535). The data set can be described thus: Kinase profiling. It counts as biochemical. The conditions noted are these: 10 semi-logarithmic dilutions from 50 μM, singlicate.
In another data set the target is CDK4/CycD3 (Homo sapiens, UniProt P11802). Put plainly: Kinase profiling. The format is biochemical. Particulars: 10 semi-logarithmic dilutions from 50 μM, singlicate.
CDK4/CycD3, sequence (P11802 whole entry): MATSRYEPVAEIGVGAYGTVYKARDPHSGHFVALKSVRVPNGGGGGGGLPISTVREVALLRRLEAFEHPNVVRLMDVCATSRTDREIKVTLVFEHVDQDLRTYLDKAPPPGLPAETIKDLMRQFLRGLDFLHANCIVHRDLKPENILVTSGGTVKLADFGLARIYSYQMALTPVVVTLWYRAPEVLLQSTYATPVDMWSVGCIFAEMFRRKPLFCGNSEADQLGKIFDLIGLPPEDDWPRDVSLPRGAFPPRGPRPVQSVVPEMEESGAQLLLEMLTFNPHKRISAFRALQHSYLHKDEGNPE
CDK4/CycD3, sequence (P30281 whole entry partner): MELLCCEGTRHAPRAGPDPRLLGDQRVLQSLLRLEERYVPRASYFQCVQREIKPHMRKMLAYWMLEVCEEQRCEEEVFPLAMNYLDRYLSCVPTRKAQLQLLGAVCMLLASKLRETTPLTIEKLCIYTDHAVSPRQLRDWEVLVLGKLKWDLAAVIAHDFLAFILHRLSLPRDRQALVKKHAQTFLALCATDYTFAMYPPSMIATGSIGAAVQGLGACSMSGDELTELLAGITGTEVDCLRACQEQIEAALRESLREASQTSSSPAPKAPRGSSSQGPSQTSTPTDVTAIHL
In data set [1] the test system is human cancer cell lines (MDA-MB-231, U87-MG, H460) and MCF10. Put plainly: Suppression of proliferation of human cancer cell lines, results in words. It counts as cell-based. Particulars: summary of Table 3. The procedure: 48 h later cells were fixed with PFA 4% for 15 minutes, stained with 10 μg/ml Hoechst 33342 (Molecular Probes, Thermo Fisher) for 30 minutes and washed twice with PBS. Cells were imaged in a high content screening system (Opera Phoenix™, Perkin Elmer) using a 20× dry objective (30 fields/well). Cell counts were determined by the Opera software (Perkin Elmer) and data were further processed with SPSS software. GI50 was calculated by estimating the absolute IC50 using dose-response inhibition tool in Prism6 (Graphpad Software Inc.).
The cell growth inhibitions of the subject compounds were tested in multiple human cancer cell lines with wild-type Retinoblastoma protein: MDA-MB-231 (breast), U87-MG (glioblastoma), H460 (lung); and MCF10 (as an example of non-transformed human cells) and mutant cells.

The target of a further data set is CDK3/CycE1 (Homo sapiens, UniProt Q00526). Put plainly: Kinase profiling. The conditions noted are these: 10 semi-logarithmic dilutions from 50 μM, singlicate. It counts as biochemical.
CDK3/CycE1, sequence (Q00526 whole entry): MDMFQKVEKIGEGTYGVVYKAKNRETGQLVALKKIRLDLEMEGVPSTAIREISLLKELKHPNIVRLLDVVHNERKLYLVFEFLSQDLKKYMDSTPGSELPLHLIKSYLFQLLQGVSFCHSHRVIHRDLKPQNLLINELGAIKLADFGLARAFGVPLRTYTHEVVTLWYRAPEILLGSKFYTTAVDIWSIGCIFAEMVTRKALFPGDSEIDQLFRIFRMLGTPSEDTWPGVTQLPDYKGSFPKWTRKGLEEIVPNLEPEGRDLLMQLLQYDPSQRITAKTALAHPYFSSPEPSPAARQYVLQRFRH
CDK3/CycE1, sequence (P24864 whole entry partner): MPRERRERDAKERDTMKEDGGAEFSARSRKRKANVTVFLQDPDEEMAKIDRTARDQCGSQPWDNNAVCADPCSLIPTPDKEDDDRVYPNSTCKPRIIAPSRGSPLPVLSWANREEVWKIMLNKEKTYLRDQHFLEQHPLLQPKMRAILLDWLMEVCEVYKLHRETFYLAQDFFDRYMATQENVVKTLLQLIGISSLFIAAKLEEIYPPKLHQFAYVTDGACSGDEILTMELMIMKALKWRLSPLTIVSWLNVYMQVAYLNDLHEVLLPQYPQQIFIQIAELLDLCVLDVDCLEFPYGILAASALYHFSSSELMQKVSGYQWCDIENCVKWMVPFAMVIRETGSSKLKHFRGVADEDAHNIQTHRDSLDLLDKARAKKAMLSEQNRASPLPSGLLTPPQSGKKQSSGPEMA
In a further data set the target is PCTAIRE1/CycY (Homo sapiens, UniProt Q00536). The data set can be described thus: Kinase profiling. It counts as biochemical. The conditions noted are these: 10 semi-logarithmic dilutions from 50 μM, singlicate.
PCTAIRE1/CycY, sequence (Q00536 whole entry, species assumed): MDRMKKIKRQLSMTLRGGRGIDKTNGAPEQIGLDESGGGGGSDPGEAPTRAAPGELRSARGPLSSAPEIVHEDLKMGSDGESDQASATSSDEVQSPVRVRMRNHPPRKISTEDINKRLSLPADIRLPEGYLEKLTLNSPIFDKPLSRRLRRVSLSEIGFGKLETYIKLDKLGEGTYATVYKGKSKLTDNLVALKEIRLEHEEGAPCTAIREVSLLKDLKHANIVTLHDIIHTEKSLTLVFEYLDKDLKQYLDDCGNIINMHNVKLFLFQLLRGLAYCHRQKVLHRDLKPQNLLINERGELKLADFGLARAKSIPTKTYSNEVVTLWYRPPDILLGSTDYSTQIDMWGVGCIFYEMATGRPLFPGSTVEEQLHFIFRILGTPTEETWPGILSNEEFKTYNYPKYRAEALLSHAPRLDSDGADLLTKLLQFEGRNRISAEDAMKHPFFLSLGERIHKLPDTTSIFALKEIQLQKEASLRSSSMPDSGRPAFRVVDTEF
PCTAIRE1/CycY, sequence (Q8ND76 whole entry partner, species assumed): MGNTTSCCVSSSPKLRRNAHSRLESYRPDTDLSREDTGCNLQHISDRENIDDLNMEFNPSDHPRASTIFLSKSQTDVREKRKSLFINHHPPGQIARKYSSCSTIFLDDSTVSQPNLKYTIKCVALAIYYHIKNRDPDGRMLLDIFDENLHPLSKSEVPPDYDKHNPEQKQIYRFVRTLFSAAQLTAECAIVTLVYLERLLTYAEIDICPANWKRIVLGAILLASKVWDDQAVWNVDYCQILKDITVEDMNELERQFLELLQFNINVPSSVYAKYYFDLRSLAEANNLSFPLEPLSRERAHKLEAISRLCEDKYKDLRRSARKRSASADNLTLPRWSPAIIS
The next data set has as its target CDK8/CycC (Homo sapiens, UniProt P49336). The data set can be described thus: Kinase profiling. It counts as biochemical. Particulars: 10 semi-logarithmic dilutions from 50 μM, singlicate.
Data set [2] relates to MDA-MB-231-derived xenografts. Put plainly: Tumor xenografts. Particulars: 100 mg/Kg intraperitoneally twice per week, two weeks; for phospho-RB levels in the xenografts: FIG. 9A; for tumor weight / tumor growth: vs DMSO; for tumor weight: FIG. 8A; for tumor growth: FIG. 8B. It counts as in vivo, Athymic nude mice. The procedure: For histological analysis, mice tissues and human xenografts were fixed in 10%-buffered formalin (Sigma) and embedded in paraffin wax. Sections of 3- or 5-μm thickness were stained with haematoxylin and eosin. Additional immunohistochemical examination was performed using a specific antibody against phospho-Rb (Ser807/811; Cell Signaling) or Ki67 (DAKO).
DMSO, PS004, PS006 and PS009 were diluted in sesame oil and administered intraperitoneally twice per week during two weeks at 100 mg/Kg. […] Tumor growth was monitored using caliper measurements and tumor size was estimated using the following formula: Tumor volume (mm^3)=d^2·D/2 where d and D, are the shortest and longest diameter in mm, respectively. After completing the treatment, mice were sacrificed and tumors were extracted, weighed, and fixed for histological analysis.
The therapeutic effect of the subject compounds was then tested by treating mice previously injected subcutaneously with MDA-MB-231 breast cancer cells. […] The dose amount of 100 mg/kg dosage in these cases was administered at a frequency of two injections per week for the total of two weeks of treatment.

Data set [3] deals with MDA-MB-231 human breast cancer cells. The data set can be described thus: Cell cycle analysis (DNA content, flow cytometry). The conditions noted are these: GI50 concentration; FIG. 1. It counts as cell-based. The procedure:
FIG. 1 depicts DNA content profiles of MDA-MB-231 human breast cancer cells treated with subject compounds or commercial CDK inhibitors, showing the percentage of cells at the different cell cycle phases after 48 hours of the treatments indicated. (n=6 technical replicates).
Cells were collected by trypsinization, washed with PBS and fixed with cold 70% ethanol. Cells were treated with 250 μg/ml RNase (Qiagen) for 30 minutes at 37° C. and stained with 10 μg/ml Propidium Iodide (Sigma). Cell cycle was analyzed by flow cytometry using a LSR Fortessa Analyzer. Cell cycle profiles were generated and analyzed with FlowJo software.
Cells were collected by tripsinization at several times after treatment with the indicated compounds and, then, fixed with cold 70% Ethanol. DNA content was determined by staining with propidium iodide (10 μg/ml, Sigma Aldrich). Data acquisition was performed with a LSR Fortessa analyzer (BD Biosciences) and analysed using FlowJo software.
On the technique in general: A flow cytometer gives signals particle by particle.

Data set [4] is described as follows: Metabolic stability in microsomes. It counts as in vitro ADME. Particulars: mouse, 60-90 min test; for microsomal CLint: read-out: Metabolic stability, Mouse microsomes: Clearance; for half-life: read-out: Metabolic stability, Mouse microsomes: t1/2.
A short description of data set [5]: Metabolic stability in hepatocytes. It counts as in vitro ADME. The conditions noted are these: human, 60-90 min test; for hepatocyte CLint: read-out: Metabolic stability, Human hepatocytes: Clearance; for half-life: read-out: Metabolic stability, Human hepatocytes: t1/2.
The nature of data set [6]: Summary of solubility, metabolic stability and permeability.

Structures are written as SMILES. “Also recorded” adds a separate entry of the source.

For orientation: IC50 means the point on the concentration scale where inhibition reaches its midpoint.

CDK8/CycC, sequence (P49336 whole entry): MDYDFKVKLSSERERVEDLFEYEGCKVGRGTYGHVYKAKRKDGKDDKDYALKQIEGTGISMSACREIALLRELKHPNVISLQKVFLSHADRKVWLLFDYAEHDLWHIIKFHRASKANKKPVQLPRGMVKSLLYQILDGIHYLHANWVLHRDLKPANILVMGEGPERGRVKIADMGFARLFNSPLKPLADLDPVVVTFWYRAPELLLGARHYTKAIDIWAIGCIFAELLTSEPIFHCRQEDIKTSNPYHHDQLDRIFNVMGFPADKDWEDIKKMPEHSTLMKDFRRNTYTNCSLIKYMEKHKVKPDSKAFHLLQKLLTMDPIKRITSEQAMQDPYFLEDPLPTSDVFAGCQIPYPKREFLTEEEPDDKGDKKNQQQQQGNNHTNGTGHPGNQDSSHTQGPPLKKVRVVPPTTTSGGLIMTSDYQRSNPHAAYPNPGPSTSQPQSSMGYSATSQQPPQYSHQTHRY
CDK8/CycC, sequence (P24863 whole entry partner): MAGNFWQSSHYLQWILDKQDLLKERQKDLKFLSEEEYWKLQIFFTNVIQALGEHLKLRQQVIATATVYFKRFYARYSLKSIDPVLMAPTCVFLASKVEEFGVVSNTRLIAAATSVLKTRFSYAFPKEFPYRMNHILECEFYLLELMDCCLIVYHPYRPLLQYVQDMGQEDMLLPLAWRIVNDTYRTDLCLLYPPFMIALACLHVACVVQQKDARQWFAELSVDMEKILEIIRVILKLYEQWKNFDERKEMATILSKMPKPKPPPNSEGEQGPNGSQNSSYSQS
CDK5/p25NCK, sequence (Q00535 whole entry): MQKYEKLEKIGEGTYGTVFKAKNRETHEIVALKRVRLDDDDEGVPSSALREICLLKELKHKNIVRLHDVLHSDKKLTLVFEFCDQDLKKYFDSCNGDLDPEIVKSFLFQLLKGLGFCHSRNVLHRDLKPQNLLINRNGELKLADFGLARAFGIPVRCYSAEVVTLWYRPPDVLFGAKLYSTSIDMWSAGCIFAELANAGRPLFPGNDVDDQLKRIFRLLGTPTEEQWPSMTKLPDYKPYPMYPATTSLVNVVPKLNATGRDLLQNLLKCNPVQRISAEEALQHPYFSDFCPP
CDK5/p25NCK, sequence (Q15078 99-307 partner limits assumed): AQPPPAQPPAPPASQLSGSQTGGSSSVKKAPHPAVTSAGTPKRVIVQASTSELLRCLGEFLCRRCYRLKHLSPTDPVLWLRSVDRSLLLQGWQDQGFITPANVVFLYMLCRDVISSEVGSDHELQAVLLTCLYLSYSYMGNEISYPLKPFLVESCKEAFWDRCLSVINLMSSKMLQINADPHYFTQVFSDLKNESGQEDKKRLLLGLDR
T1 sequence (P31749 whole entry, the tested form may be a part): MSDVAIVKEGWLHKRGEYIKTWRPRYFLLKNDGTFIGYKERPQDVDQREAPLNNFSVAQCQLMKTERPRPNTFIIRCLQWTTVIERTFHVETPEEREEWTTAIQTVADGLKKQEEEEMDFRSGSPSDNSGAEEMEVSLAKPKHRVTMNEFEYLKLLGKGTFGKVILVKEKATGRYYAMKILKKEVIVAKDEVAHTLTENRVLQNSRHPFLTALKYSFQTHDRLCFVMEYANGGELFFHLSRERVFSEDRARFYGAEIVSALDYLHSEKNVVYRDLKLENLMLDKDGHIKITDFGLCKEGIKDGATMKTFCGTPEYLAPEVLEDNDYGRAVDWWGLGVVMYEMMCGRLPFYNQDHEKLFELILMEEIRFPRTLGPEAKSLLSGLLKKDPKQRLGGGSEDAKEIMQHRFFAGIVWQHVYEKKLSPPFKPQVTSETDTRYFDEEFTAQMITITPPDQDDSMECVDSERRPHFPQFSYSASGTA

Consider `O=c1ccc2cnc(Nc3ccc(N4CCC(CCCO)CC4)cc3F)nc2n1[C@@H]1CC2CCC1C2` (stereo partly drawn) [PS002, 8-((2R)-bicyclo[2.2.1]heptan-2-yl)-2-((2-fluoro-4-(4-(3-hydroxypropyl)piperidin-1-yl)phenyl)amino)pyrido[2,3-d]pyrimidin-7(8H)-one], for which the IC50 on AKT1 aa1-480 was more than 50 µM; against CDK2/CycA2, 19.7 µM; on CDK9/CycT1 it was 8.07 µM; at DYRK2, more than 50 µM; on CDK9/CycK, 7.05 µM; against CDK5/p25NCK it was more than 50 µM. The IC50 is 3.84 µM against CDK4/CycD3, 17.2 µM on CDK3/CycE1, more than 50 µM against PCTAIRE1/CycY and 0.122 µM at CDK8/CycC. The “suppression of cell proliferation” value in data set [1] is listed as “exception”.
In the case of `CC(O)CCC1CCN(c2ccc(Nc3ncc4ccc(=O)n([C@@H]5CC6CCC5C6)c4n3)cc2)CC1` (stereo partly drawn) [PS004, 8-((2R)-bicyclo[2.2.1]heptan-2-yl)-2-((4-(4-(3-hydroxybutyl)piperidin-1-yl)phenyl)amino)pyrido[2,3-d]pyrimidin-7(8H)-one], the IC50 against AKT1 aa1-480 was more than 50 µM; against CDK2/CycA2, 0.452 µM; at CDK9/CycT1, 0.264 µM; at DYRK2 it was 40.5 µM; on CDK9/CycK, 0.141 µM; against CDK5/p25NCK, 4.41 µM. The IC50 against CDK4/CycD3 was 0.123 µM; against CDK3/CycE1, 0.654 µM; against PCTAIRE1/CycY, 13.5 µM; against CDK8/CycC, 0.162 µM. The “phospho-RB levels in the xenografts” value in data set [2] was “reduction of phospho-Rb phosphorylation which however did not reach statistical significance”. For the same compound, the “Ki67 levels in the xenografts” value in data set [2] (FIG. 9B) is on record as “slightly diminished”. Moreover, the tumor weight result in [2] is listed as “significantly reduced”. In data set [2], the tumor growth result was “significantly reduced”. Besides, in data set [3], the “cell cycle arrest by DNA content” value was “accumulation of cells both in G1 and G2/M phases; also recorded: arresting cells in G1/G2/M cell cycle phases”. For the same compound, in [1], the “suppression of cell proliferation” value was “inhibited cell growth with high potential”. In data set [4], the microsomal CLint was 54.5 µL/min/mg. The half-life in data set [4] is 25.4 min; in [5], more than 217 min. The hepatocyte CLint in [5] is less than 6.4 µL/min/1e6 cells. Also, in [6], the “Summary: permeability” value was “Low”. Further, the “Summary: solubility” value in data set [6] is recorded as “Insoluble,”. For the same compound, the “Summary: stability” value in data set [6] is “Stable”.
In the case of `CC(=O)c1c(C)c2cnc(Nc3ccc(N4CCC(CCCO)CC4)cc3)nc2n(C2CCCC2)c1=O` [PS009, 6-acetyl-8-cyclopentyl-2-((4-(4-(3-hydroxypropyl)piperidin-1-yl)phenyl)amino)-5-methylpyrido[2,3-d]pyrimidin-7(8H)-one], the IC50 against AKT1 aa1-480 is more than 50 µM; against CDK2/CycA2 it was 0.768 µM; against CDK9/CycT1 it was 0.193 µM; at DYRK2, more than 50 µM; at CDK9/CycK, 0.056 µM; on CDK5/p25NCK, 4.85 µM. Further, the IC50 against CDK4/CycD3 is 0.0554 µM; against CDK3/CycE1 it was 17.1 µM; on PCTAIRE1/CycY, more than 50 µM; against CDK8/CycC, more than 50 µM. Besides, the “phospho-RB levels in the xenografts” value in data set [2] is listed as “reduction of phospho-Rb phosphorylation which however did not reach statistical significance”. The tumor weight result in data set [2] is on record as “did not exert any antitumoral effect”. For the same compound, in data set [2], the tumor growth entry is “did not exert any antitumoral effect”. Further, the “cell cycle arrest by DNA content” value in data set [3] is “induced accumulation of cells in G0/G1; also recorded: arrested cells predominantly in G1”. Also, the microsomal CLint in data set [4] stood at 46.9 µL/min/mg. Besides, the half-life in data set [4] stood at 29.5 min; in data set [5] it was 33.3 min. For the same compound, the hepatocyte CLint in data set [5] stood at 41.7 µL/min/1e6 cells. In addition, the “Summary: permeability” value in data set [6] is “Low”. In data set [6], the “Summary: solubility” value was “insoluble; also recorded: Insoluble,”.
